For assay [1], the system named is pro-inflammatory genes A20, CCL20, IL6, IL8, CXCL2, JUNB and IEX1. Put plainly: mRNA levels of pro-inflammatory genes under basal conditions, HeLa, RT-qPCR. Particulars: HeLa cells, 2 hours, 50 μM SPI. It counts as cell-based, human. As to the method: (§1) Cell culture—HEK293T, HeLa, MCF7, Jurkat and mouse embryonic fibroblasts (MEFs) cells were grown and maintained in Dulbecco's modified Eagle's medium supplemented with 10% fetal calf serum (Gibco) and 1% penicillin-streptomycin. To avoid NF-κB activity, HeLa cells were kept from reaching confluence and re-plated no more than 10 times following initial thawing. To induce NF-κB activity, cells were treated with […] recombinant human TNF-α (Peprotech) for the indicated times. STHdh Q111 and STHdh Q7 striatal cell lines (Coriell Institute for Medical Research) were grown in Dulbecco's modified Eagle's medium supplemented with 10% fetal calf serum (Gibco), 1% penicillin-streptomycin and 0.4 mg/ml G418 at 33° C. The cells were re-plated no more than 5-6 times, as recommended.
(§2) RNA analysis—Total RNA was extracted using Tri-reagent (Bio-Lab Chemicals) and Direct-Zol™ RNA MiniPrep kit (Zymo Research). Following, cDNA was synthesized from […] of total RNA using a High-Capacity cDNA Reverse Transcription Kit (ABI, Thermo Fisher Scientific). cDNA samples were analyzed by quantitative PCR (qPCR) in a ViiA 7 Real-Time PCR System using Fast qPCRBIO SYBR Green Mix (PCR Biosystems).
Thus, a subset of Spt5-responsive pro-inflammatory genes from the aforementioned studies and from others (Aida et al., 2006; Fujita et al., 2009), namely A20, CCL20, IL6, IL8, CXCL2, JUNB and IEX1, were selected and the effect of the identified SPIs on their expression under basal conditions and in response to NF-κB activation was tested (FIGS. 2A-C and 3A-C). Specifically, for analyzing expression under basal conditions, Hela cells were treated with vehicle (DMSO) or SPI for 2 hours and following RNA was extracted and analyzed by RT-qPCR.
(Real-time PCR tracks product formation cycle by cycle.)

In the next assay the test system is Spt5 activities. The experiment in a line: Combined effects on the various Spt5 activities (summary of Examples 1-4). Format: cell-based.
In the next assay the test system is mutant (Q111) Htt. The experiment in a line: Htt mRNA levels in Q111 striatal cells, qPCR. Format: cell-based, mouse. The note with it: 48 hours. On the procedure: as §1
Huntington's disease (HD) is an inherited genetic disorder caused by expansion trinucleotide CAG repeats (36 and higher) encoding glutamine (Q) in the huntingtin (Htt) gene. Expression of the mutant gene in neurons of the striatum and the frontal cortex leads to degeneration of neuronal cells that control body movements, emotions and intellect. […] To examine the potential effect of SPIs in this context, striatal cell lines established from wild type (Q7) or from mutant (Q111) Htt knock-in mice were used. In these cell lines the coding region of the first exon of the mouse Htt gene was replaced with the same region of human wild type (Q7) or mutant (Q111) Htt, as schematically shown in FIG. 6A. The two cell lines were treated for 48 hours with the identified SPIs and following the levels of Htt mRNA were determined.
The compounds were tested as described in Example 4 hereinabove. In brief, Q111 (or Q7, where indicated) expressing Striatal cells were treated with the tested compound at the indicated concentrations for 48 hours. Then, RNA was extracted and levels of Htt mRNA were determined by qRT-PCR and normalized to β-actin. The data was analysed using GraphPad Prism software.

The test system of assay [2] is pro-inflammatory genes A20, CCL20, IL6, IL8, CXCL2, JUNB and IEX1. The experiment in a line: mRNA levels of pro-inflammatory genes under TNFα-induced conditions, HeLa, RT-qPCR. The note with it: for Down-regulating transcription of pro-inflammatory genes under TNFα induced conditions (i.e. inhibiting transcription elongation of pro-inflammatory genes induced by Spt5): HeLa cells, SPI 1 hour then TNFα 1 hour. Format: cell-based, human. As to the method:
as §1, §2
In the next step, the effect of the identified SPIs on expression of the selected genes following NF-κB activation was analyzed. Specifically, Hela cells were pre-incubated with DMSO or SPI (50 μM or less) for 1 hour followed by treatment with TNFα for an additional 1 hour.

Take `Cn1cc(-c2ccncc2)c(-c2ccc(OCc3ccc4ccccc4n3)cc2)n1` [SPI-95]: the “Up-regulation of pro-inflammatory genes under basal conditions (i.e. inhibiting proximal promoter pausing of pro-inflammatory genes induced by Spt5)” value in assay [1] is “+ (+ >1.6)”. In addition, the “classification by effect on the various Spt5 activities, in words” value with Spt5 activities is “affected the basal and the TNFα-induced pro-inflammatory gene transcription”. In addition, the “effect on mutant (Q111) Htt mRNA expression, in words” value in the assay on mutant (Q111) Htt is listed as “did not affect mutant Htt expression”. Besides, the “Down-regulating transcription of pro-inflammatory genes under TNFα induced conditions (i.e. inhibiting transcription elongation of pro-inflammatory genes induced by Spt5)” value in assay [2] was “++ (++ >65%)”. The “effect on TNFα-induced levels of pro-inflammatory genes, in words” value in assay [2] (HeLa, SPI (50 μM or less) 1 hour then TNFα 1 hour) is recorded as “affected mainly the genes that were strongly induced by the TNFα treatment”.
Regarding `O=C1C(=Cc2cccc(O)c2)CSCC1=Cc1cccc(O)c1` [SPI-157], the “Up-regulation of pro-inflammatory genes under basal conditions (i.e. inhibiting proximal promoter pausing of pro-inflammatory genes induced by Spt5)” value in assay [1] was “++ (++ >3)”. Besides, the “classification by effect on the various Spt5 activities, in words” value with Spt5 activities was “affected the basal and the TNFα-induced pro-inflammatory gene transcription”. For the same compound, in the assay with mutant (Q111) Htt, the “effect on mutant (Q111) Htt mRNA expression, in words” value is “did not affect mutant Htt expression”. Besides, in assay [2], the “Down-regulating transcription of pro-inflammatory genes under TNFα induced conditions (i.e. inhibiting transcription elongation of pro-inflammatory genes induced by Spt5)” value is given as “+++ (+++ represent >80% inhibition)”.

The values above are taken from US12661353B2, “SPT5 inhibitors and uses thereof” (Yeda Research and Development Co. Ltd., priority 2020, dated 2026).
